Assay results published in patent US20110218103A1, “Fluoroalkyl-substituted 2-amidobenzimidazoles” (BAYER CROPSCIENCE AG, priority 2010, published 2011).

Test system: Brassica napus (BRSNS)
Test: Drought stress test on crop plants, spray application in greenhouse, visual damage rating
Assay type: in vivo
Conditions: mean of three results
Experimental: Seeds of monocotyledonous and dicotyledonous crop plants were placed in sandy loam in wood-fiber pots, covered with soil and cultivated in a greenhouse under good growth conditions. The test plants were treated at the early leaf stage (BBCH10-BBCH13). To ensure uniform water supply before commencement of stress, the potted plants were supplied with the maximum amount of water immediately beforehand by dam irrigation and, after application, transferred in plastic inserts in order to prevent subsequent, excessively rapid drying. The inventive compounds, formulated in the form of wettable powders (WP), wettable granules (WG), suspension concentrates (SC) or emulsion concentrates (EC), were sprayed onto the green parts of the plants as an aqueous suspension at an equivalent water application rate of 600 l/ha with addition of 0.2% wetting agent (agrotin). Substance application was followed immediately by stress treatment of the plants (cold or drought stress). For cold stress treatment, the plants were kept under the following controlled conditions: Drought stress was induced by gradual drying out under the following conditions: “day”: 14 hours with illumination at 26° C. “night”: 10 hours without illumination at 18° C. The duration of the respective stress phases was guided mainly by the state of the untreated, stressed control plants and thus varies from crop to crop. It was ended (by re-irrigating or transfer to a greenhouse with good growth conditions) as soon as irreversible damage is observed on the untreated, stressed control plants. In the case of dicotyledonous crops, for example oilseed rape and soya, the duration of the drought stress phase was between 3 and 5 days, in the case of monocotyledonous crops, for example wheat, barley or corn, between 6 and 10 days. The duration of the cold stress phase varied between 12 and 14 days. The end of the stress phase was followed by an approx. 5-7-day recovery phase, during which the plants were once again kept under good growth conditions in a greenhouse. In order to rule out any influence of the effects observed by any fungicidal action of the test compounds, it was additionally ensured that the tests proceed without fungal infection and without infection pressure. After the recovery phase had ended, the intensities of damage were rated visually compared to untreated, unstressed controls of the same age (in the case of drought stress) or the same growth stage (in the case of cold stress). The intensity of damage was first assessed as a percentage (100%=plants have died, 0%=like control plants). These values were then used to calculate the efficacy of the test compounds (=percentage reduction in the intensity of damage as a result of substance application) by the following formula: [formula] EF: efficacy (%) DVus: damage value of the untreated, stressed control DVts: damage value of the plants treated with test compound The tables below list mean values in each case from three results of the same test. Effects of selected compounds of the formula (I) under drought stress: BRSNS=Brassica napus

| SMILES | EF (BRSNS), efficacy = percentage reduction in the intensity of damage (25 g/ha) [%] | EF (BRSNS), efficacy = percentage reduction in the intensity of damage (50 g/ha) [%] |
| --- | --- | --- |
| NC(=O)c1cccc2[nH]c(C(F)(F)C(F)(F)F)nc12 [1-2, 2-(pentafluoroethyl)-1H-benzimidazole-4-carboxamide] | >5 | – |
| NC(=O)c1cccc2[nH]c(C(F)(F)C(F)(F)C(F)(F)F)nc12 [1-17] | – | >5 |
